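The compound was tested at five concentrations on cells cultured in 96-well plates, with a 48-hour exposure period. At the GI50, growth is halved. Definition used: TGI = concentration required for complete inhibition of growth.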
Tests used:
Experiment in all cases: NCI anticancer screen, dose series, 48 h
[1] = test system: SN12C renal
[2] = test system: SF-268 CNS
[3] = test system: MDA-MB-435
[4] = test system: M14 melanoma
[5] = test system: RXF 393 renal
[6] = test system: NCI-H23 lung
[7] = test system: SR leukemia
[8] = test system: EKVX NSCLC

| Compound | GI50 [1] | TGI [1] | GI50 [2] | TGI [2] | GI50 [3] | TGI [3] | GI50 [4] | TGI [4] | GI50 [5] | TGI [5] | GI50 [6] | TGI [6] | GI50 [7] | TGI [7] | GI50 [8] | TGI [8] |
| --- | --- | --- | --- | --- | --- | --- | --- | --- | --- | --- | --- | --- | --- | --- | --- | --- |
| COc1ccc(-c2nn(-c3cccc(NC(=O)Nc4cccc(C(F)(F)F)c4)c3)cc2-c2ccncc2)cc1Cl | 2.4 µM | > 100 µM | 3.22 µM | > 100 µM | 1.45 µM | 4.67 µM | 1.63 µM | 4.62 µM | 1.33 µM | 6.37 µM | 3.02 µM | > 100 µM | 1.31 µM | 4.84 µM |  |  |
| Clc1ccc(-c2cn(-c3ccccc3)c(-c3ccccc3)n2)c(Cl)c1 | 4.09 µM | > 30.1 µM | 1.78 µM | > 11 µM | 1.69 µM | 10.1 µM | 2.47 µM | > 15.1 µM | 2.11 µM | 11.9 µM | > 16.2 µM | > 50 µM | 1.05 µM | 4.01 µM | > 18.5 µM | > 50 µM |
| CC(C)[C@@H](CS(=O)(=O)C(C)C)N1C(=O)[C@@](C)(CC(=O)O)C[C@H](c2cccc(Cl)c2)[C@H]1c1ccc(Cl)cc1 | 19.8 µM | > 70.5 µM | 20.8 µM | > 100 µM | 15.3 µM | 45.5 µM | 14.1 µM | 59.6 µM | 19.5 µM | 67 µM | 17 µM | 56.8 µM | 0.249 µM | > 40.7 µM | 11.9 µM | > 100 µM |
| C=C1C(=O)O[C@H]2[C@H]1CC(=O)/C(C)=C\CC[C@@]1(C)O[C@@H]21 | 4.17 µg/mL | 8.4 µg/mL | 4.15 µg/mL | 9.58 µg/mL | 2.98 µg/mL | 7.14 µg/mL | 3.38 µg/mL | 11.8 µg/mL | 2.95 µg/mL | 9.41 µg/mL | 3.94 µg/mL | 8.18 µg/mL | 0.759 µg/mL | 9.5 µg/mL | 4 µg/mL | 8.03 µg/mL |
| COc1cc2c3c(n(C)c(=O)c2cc1OC)-c1cc2c(cc1/C3=C\[C@@H](N)CCCCN)OCO2 | 0.46 µM | 6.95 µM | 1.86 µM | > 42 µM | 2.81 µM | > 100 µM | 6.9 µM | > 100 µM | 12.7 µM | > 50.9 µM | 1.29 µM | 20.5 µM |  |  | 4.56 µM | 75.9 µM |
| CCC(C)CC(CC)NCCN1CCN(C(CC)CC(C)CC)C1=S (stereo unspecified) | 2.55 µM | 7.83 µM | 1.92 µM | 4.11 µM | 1.77 µM | 3.39 µM | 1.79 µM | 3.25 µM | 1.5 µM | 2.82 µM | 1.74 µM | 3.5 µM | 1.87 µM | 4.12 µM | 1.93 µM | 5.13 µM |
| CC(=O)OC1=C2C(CC3C4CC=C5CC(OC(C)=O)CCC5(C)C4CCC23C)C2C(=O)N(Cc3ccccc3)C(=O)C2C1 (stereo unspecified) | 10.9 µM | > 100 µM | 19.8 µM | > 100 µM | 14.5 µM | > 100 µM | 7.77 µM | 75.3 µM | 4.34 µM | 45.3 µM | 16.6 µM | 74 µM | 3.62 µM | 16.6 µM |  |  |
